Assays:
Format in all cases: in vivo
[1] = tested on: galium (catchweed bedstraw, Galium aparine); assay: Test A greenhouse herbicide test, postemergence
Method in brief: (§1)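 Seedlings in a loam soil and sand mix received formulated compound postemergence at the one- to two-leaf stage. Greenhouse holding lasts approximately 10 d, then injury is scored visually relative to untreated plants, 0 meaning no effect and 100 complete control.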

[2] = tested on: blackgrass (Alopecurus myosuroides); assay: Test A greenhouse herbicide test, postemergence
Method in brief: as §1

[3] = tested on: foxtail, giant (giant foxtail, Setaria faberii); assay: Test C greenhouse herbicide test, pre- and postemergence
Excerpt: (§2) Seeds of plant species selected from blackgrass (Alopecurus myosuroides), ryegrass, Italian (Italian ryegrass, Lolium multiflorum), wheat (winter wheat, Triticum aestivum), galium (catchweed bedstraw, Galium aparine), corn (Zea mays), large crabgrass, large (large crabgrass, Digitaria sanguinalis), foxtail, giant (giant foxtail, Setaria faberii), johnsongrass (Sorghum halepense), lambsquarters (Chenopodium album), morningglory (Ipomoea coccinea), nutsedge, yellow (yellow nutsedge, Cyperus esculentus), pigweed (Amaranthus retroflexus), ragweed (common ragweed, Ambrosia elatior), soybean (Glycine max), barnyardgrass (Echinochloa crus-galli), oilseed rape (Brassica napus), waterhemp (common waterhemp, Amaranthus rudis), and velvetleaf (Abutilon theophrasti) were planted into a blend of loam soil and sand and treated preemergence with test chemicals formulated in a non-phytotoxic solvent mixture which included a surfactant.
(§3) At the same time, plants selected from these crop and weed species and also chickweed (common chickweed, Stellaria media), kochia (Kochia scoparia), and oat, wild (wild oat, Avena fatua), were planted in pots containing Redi-Earth® planting medium (Scotts Company, 14111 Scottslawn Road, Marysville, Ohio 43041) comprising spaghnum peat moss, vermiculite, wetting agent and starter nutrients and treated with postemergence applications of test chemicals formulated in the same manner. Plants ranged in height from 2 to 18 cm (1- to 4-leaf stage) for postemergence treatments. Treated plants and controls were maintained in a greenhouse for 13 to 15 d, after which time all species were compared to controls and visually evaluated. Plant response ratings, summarized in Table C, are based on a scale of 0 to 100 where 0 is no effect and 100 is complete control. A dash (-) response means no test result.

[4] = tested on: barnyardgrass (Echinochloa crus-galli); assay: as above
Excerpt: as §2, §3

[5] = tested on: ragweed (common ragweed, Ambrosia elatior); assay: as above
Excerpt: as §2, §3

[6] = tested on: morningglory (Ipomoea coccinea); assay: as above
Excerpt: as §2, §3

[7] = tested on: galium (catchweed bedstraw, Galium aparine); assay: as above
Excerpt: as §2, §3

[8] = tested on: oilseed rape (Brassica napus); assay: as above
Excerpt: as §2, §3

[9] = tested on: johnsongrass (Sorghum halepense); assay: as above
Excerpt: as §2, §3

[10] = tested on: ryegrass, Italian (Italian ryegrass, Lolium multiflorum); assay: as above
Excerpt: as §2, §3

[11] = tested on: wheat (winter wheat, Triticum aestivum); assay: as above
Excerpt: as §2, §3

[12] = tested on: crabgrass, large (large crabgrass, Digitaria sanguinalis); assay: as above
Excerpt: as §2, §3

[13] = tested on: lambsquarters (Chenopodium album); assay: as above
Excerpt: as §2, §3

[14] = 125 g ai/ha, visual rating after approx. 10 d, 0 to 100 scale (0 no effect, 100 complete control)
[15] = 500 g ai/ha, 0 to 100 scale, 0 is no effect, 100 is complete control
[16] = Postemergence, 31 g ai/ha, 0 to 100 scale (0 no effect, 100 complete control)
[17] = Postemergence, 125 g ai/ha, scale 0 to 100, 0 is no effect, 100 is complete control
[18] = Postemergence, 250 g ai/ha, scale 0 to 100, 0 no effect, 100 complete control, 13 to 15 d
[19] = Preemergence, 31 g ai/ha, scale 0 to 100, 0 is no effect, 100 is complete control
[20] = Preemergence, 62 g ai/ha, scale 0 to 100, 0 is no effect, 100 is complete control
[21] = Preemergence, 125 g ai/ha, scale 0 to 100, 0 is no effect, 100 is complete control
[22] = Preemergence, 250 g ai/ha, scale 0 to 100, 0 no effect, 100 complete control
[23] = postemergence, 62 g ai/ha, scale 0 to 100, 0 no effect, 100 complete control

## Cc1ccc2ccccc2c1-c1c(O)c(I)nn(C)c1=O [Compound 29]
[1]; [14]
  Plant response rating, Galium: 90
[1]; [15]
  Galium plant response rating: 90
[2]; [14]
  Plant response rating, Blackgrass: 70
[2]; [15]
  Blackgrass plant response rating: 80
[3]; [16]
  Foxtail, Giant plant response rating: 30
[3]; [17]
  Plant response rating, Foxtail, Giant: 60
[3]; [18]
  Plant response rating, Foxtail, Giant: 80
[3]; [19]
  Plant response rating, Foxtail, Giant: 75
[3]; [20]
  Plant response rating, Foxtail, Giant: 75
[3]; [21]
  Plant response rating, Foxtail, Giant: 90
[3]; [22]
  Foxtail, Giant plant response rating: 95
[3]; [23]
  Foxtail, Giant plant response rating: 35
[4]; [16]
  Barnyardgrass plant response rating: 15
[4]; [17]
  Plant response rating, Barnyardgrass: 40
[4]; [18]
  Plant response rating, Barnyardgrass: 40
[4]; [19]
  Plant response rating, Barnyardgrass: 10
[4]; [20]
  Plant response rating, Barnyardgrass: 35
[4]; [21]
  Plant response rating, Barnyardgrass: 80
[4]; [22]
  Barnyardgrass plant response rating: 90
[4]; [23]
  Barnyardgrass plant response rating: 25
[5]; [16]
  Ragweed plant response rating: 80
[5]; [17]
  Plant response rating, Ragweed: 95
[5]; [18]
  Plant response rating, Ragweed: 95
[5]; [19]
  Plant response rating, Ragweed: 80
[5]; [20]
  Plant response rating, Ragweed: 85
[5]; [21]
  Plant response rating, Ragweed: 85
[5]; [22]
  Ragweed plant response rating: 90
[5]; [23]
  Ragweed plant response rating: 90
[6]; [16]
  Morningglory plant response rating: 85
[6]; [17]
  Plant response rating, Morningglory: 100
[6]; [18]
  Plant response rating, Morningglory: 100
[6]; [19]
  Plant response rating, Morningglory: 80
[6]; [20]
  Plant response rating, Morningglory: 95
[6]; [21]
  Plant response rating, Morningglory: 95
[6]; [22]
  Morningglory plant response rating: 98
[6]; [23]
  Morningglory plant response rating: 100
[7]; [16]
  Galium plant response rating: 90
[7]; [17]
  Plant response rating, Galium: 100
[7]; [18]
  Plant response rating, Galium: 100
[7]; [19]
  Plant response rating, Galium: 95
[7]; [20]
  Plant response rating, Galium: 95
[7]; [21]
  Plant response rating, Galium: 98
[7]; [22]
  Galium plant response rating: 98
[7]; [23]
  Galium plant response rating: 95
[8]; [16]
  Oilseed Rape plant response rating: 0
[8]; [17]
  Plant response rating, Oilseed Rape: 5
[8]; [18]
  Plant response rating, Oilseed Rape: 0
[8]; [19]
  Plant response rating, Oilseed Rape: 0
[8]; [20]
  Plant response rating, Oilseed Rape: 0
[8]; [21]
  Plant response rating, Oilseed Rape: 5
[8]; [22]
  Oilseed Rape plant response rating: 70
[8]; [23]
  Oilseed Rape plant response rating: 0
[9]; [16]
  Johnsongrass plant response rating: 0
[9]; [18]
  Plant response rating, Johnsongrass: 25
[9]; [19]
  Plant response rating, Johnsongrass: 10
[9]; [20]
  Plant response rating, Johnsongrass: 5
[9]; [21]
  Plant response rating, Johnsongrass: 25
[9]; [22]
  Johnsongrass plant response rating: 20
[9]; [23]
  Johnsongrass plant response rating: 5
[10]; [16]
  Ryegrass, Italian plant response rating: 70
[10]; [17]
  Plant response rating, Ryegrass, Italian: 85
[10]; [18]
  Plant response rating, Ryegrass, Italian: 95
[10]; [19]
  Plant response rating, Ryegrass, Italian: 90
[10]; [20]
  Plant response rating, Ryegrass, Italian: 90
[10]; [21]
  Plant response rating, Ryegrass, Italian: 90
[10]; [22]
  Ryegrass, Italian plant response rating: 90
[10]; [23]
  Ryegrass, Italian plant response rating: 80
[11]; [16]
  Wheat plant response rating: 5
[11]; [17]
  Plant response rating, Wheat: 30
[11]; [18]
  Plant response rating, Wheat: 10
[11]; [20]
  Plant response rating, Wheat: 5
[11]; [21]
  Plant response rating, Wheat: 45
[11]; [22]
  Wheat plant response rating: 50
[11]; [23]
  Wheat plant response rating: 5
[12]; [16]
  Crabgrass, Large plant response rating: 10
[12]; [17]
  Plant response rating, Crabgrass, Large: 50
[12]; [18]
  Plant response rating, Crabgrass, Large: 40
[12]; [19]
  Plant response rating, Crabgrass, Large: 5
[12]; [20]
  Plant response rating, Crabgrass, Large: 5
[12]; [21]
  Plant response rating, Crabgrass, Large: 55
[12]; [22]
  Crabgrass, Large plant response rating: 90
[12]; [23]
  Crabgrass, Large plant response rating: 20
[13]; [16]
  Lambsquarters plant response rating: 80
[13]; [17]
  Plant response rating, Lambsquarters: 85
[13]; [18]
  Plant response rating, Lambsquarters: 90
[13]; [19]
  Plant response rating, Lambsquarters: 75
[13]; [20]
  Plant response rating, Lambsquarters: 80
[13]; [21]
  Plant response rating, Lambsquarters: 80
[13]; [22]
  Lambsquarters plant response rating: 90
[13]; [23]
  Lambsquarters plant response rating: 85

From patent publication US10597388B2, “Pyridazinone herbicides” (FMC CORPORATION, priority 2014, dated 2020)
